Reference: US4735961A, “Oxazoles and thiazoles containing an aminohydroxypropoxyphenyl moiety” (Merck & Co., Inc., priority 1985, dated 1988)

The compounds below were run on β2 : β1 receptors (assay: cardioselectivity, β2:β1 ratio (pulmonary versus cardiac effect, guinea pig trachea versus atria)). Settings: ratio of pulmonary (β2) to cardiac (β1) effect; over 1 = cardioselective.
Format: cell-based
Description: Expressed in different terms, a smaller amount of a compound of the invention is required to block isoproterenol-induced elevation in heart rate than is required to block the isoproterenol-induced relaxation of the bronchi. This cardioselectivity factor can be expressed as the ratio of ED50 for pulmonary effect (β2):ED50 for cardiac effect (β1). Where the β2 :β1 ratio is over 1, then the compound would be considered to have cardioselective activity.

Compared with `OC(CNC1CC1)COc1ccc(-c2nccs2)cc1` (stereo not drawn) [Example 3, 2-[p-(3-Cyclopropylamino-2-hydroxypropoxy)phenyl]thiazole], `COc1ccc(CCNC[C@H](O)COc2ccc(-c3nccs3)cc2)cc1OC` [Example 2, (S) 2-p-[3-(3,4-Dimethoxyphenylethyl)amino-2-hydroxypropoxy]phenyl thiazole] is higher in “β2 :β1” value: 85 for the first, 813 for the second.

With `COc1ccc(CCNCC(O)COc2ccc(-c3ncco3)cc2)cc1OC` (stereo not drawn) [Example 1, 2-p-[3-(3,4-Dimethoxyphenethylamino)-2-hydroxypropoxy]phenyl oxazole] the “β2 :β1” value was 19.
